# Reference: ChEMBL document CHEMBL6071176, “Development of Phloroglucinol-Linked Tris-Quaternary Ammonium Salt Antimicrobial Peptide Mimics with Low Cytotoxicity and Broad-Spectrum Antibacterial Activity” (J Med Chem, 2024)
# Calls of active or inactive are those of the source. The calls are words filed in the database; no cut-off is given here. *1 amine or outer side, *2 acyl side, *3 side chain or, on linkers, in order; H or OH if unused. Where a SMILES comes first, the peptide text is derived from it. Bridges are numbered along the chain shown (N, C = ends). Side-chain parts run from the residue outwards. [ ]: non-standard residue; d: D form. The star is where a group is joined. X1 = C[C@@H](O)[C@H](CN([C@@H](CCN)C(=O)[*:2])[*:1])N[*:3]; Octanoyl(6-Me) = CCC(C)CCCCC(=O)*; Dab = NCC[C@H](N)C(=O)O
# Columns and labels:
# Staphylococcus aureus [1] = assay: Antibacterial activity against NDM-1 gene-resistant Staphylococcus aureus assessed as inhibition of bacterial growth incubated for 18 hrs by CLSI guidelines based assay; format: functional
# Staphylococcus aureus [2] = assay: Bactericidal activity against early exponential phase Staphylococcus aureus assessed as bacterial killing at 6 ug/ml incubated for 4 hrs by time-kill assay; format: functional, organism-based; details: dose 6.0 µg/ml
# Escherichia coli [3] = assay: Antimicrobial activity against Escherichia coli assessed as inhibition of growth incubated for 18 hrs by CLSI guidelines based assay; format: functional
# Staphylococcus aureus [4] = assay: Anti-biofilim activity against Staphylococcus aureus biofilm assessed bio-film thickness at 32 ug/ml measured after 24 hrs incubation by SYTO 9 staining based […] laser scanning microscopy (CLSM) (reference value: 29.5 microm); format: functional; details: dose 32 µg/ml
# Staphylococcus aureus [5] = assay: Antibacterial activity against methicillin-resistant Staphylococcus aureus assessed as inhibition of bacterial growth measured immediately after addition in presence of plasma; format: functional, organism-based
# Staphylococcus aureus [6] = assay: Bactericidal activity against early exponential phase Staphylococcus aureus assessed as bacterial killing at 6 ug/ml incubated for 12 hrs by time-kill assay; format: functional, organism-based; details: dose 6.0 µg/ml
# [7] = Hemolytic activity in sheep red blood cells measured after 1 hr incubation; format: toxicity, cell-based, Ovis aries, Erythrocyte
# Staphylococcus aureus [8] = assay: Anti-bacterial activity against 100 times rifampicin induced persistent cells of Staphylococcus aureus assessed as reduction in persistent cells at 32 times of MIC; format: functional
# Staphylococcus aureus [9] = assay: In vivo antibacterial activity against methicillin-resistant Staphylococcus aureus subcutaneously infected in SPF female Kunming mouse model assessed as bacteria count in dissected mouse at 10 mg/kg/day injected into blister after 6 hrs of infection measured after 6 consecutive treatments; format: functional, organism-based
# Escherichia coli [10] = assay: Bactericidal activity against late exponential phase Escherichia coli assessed as bacterial killing by measuring bacterial count at 8 ug/ml incubated for 12 hrs by time-kill assay (reference value: 10^8.4 CFU/ml); format: functional; details: dose 8 µg/ml
# Escherichia coli [11] = assay: Bactericidal activity against early exponential phase Escherichia coli assessed as bacterial killing at 6 ug/ml incubated for 6 hrs by time-kill assay; format: functional, organism-based; details: dose 6.0 µg/ml
# Escherichia coli [12] = assay: Bactericidal activity against early exponential phase Escherichia coli assessed as bacterial killing at 6 ug/ml incubated for 12 hrs by time-kill assay; format: functional, organism-based; details: dose 6.0 µg/ml
# Staphylococcus aureus [13] = assay: Antibacterial activity against methicillin-resistant Staphylococcus aureus; format: functional
# [14] = Selectivity index, ratio of HC50 for human erythrocytes to MIC for methicillin-resistant Staphylococcus aureus; format: toxicity, cell-based, RBC; details: read-out: Selectivity Index
# Staphylococcus aureus [15] = assay: Resistance development in Staphylococcus aureus assessed as increase in MIC measured after 20 passages of continues culture; format: functional
# [16] = Selectivity index, ratio of HC50 for RBC (unknown origin) to MIC for Staphylococcus aureus; format: toxicity, cell-based; details: red blood cells; read-out: Selectivity Index
# [17] = Selectivity index, ratio of HC50 for sheep red blood cells to MIC for Staphylococcus aureus; format: toxicity, cell-based, RBC; details: read-out: Selectivity Index
# Staphylococcus aureus [18] = assay: Antimicrobial activity against Staphylococcus aureus assessed as inhibition of growth incubated for 18 hrs by CLSI guidelines based assay; format: functional
# [19] = Cytotoxicity against human Gastric mucosal cells measured after 24 hrs by CCK-8 assay; format: toxicity, cell-based, Gastric mucosal cell
# Staphylococcus aureus [20] = assay: Antibacterial activity against Staphylococcus aureus; format: functional
# [21] = Hemolytic activity in red blood cells (unknown origin); format: toxicity, cell-based, Erythrocyte
# [22] = Hemolytic activity in human erythrocytes; format: toxicity, cell-based, Erythrocyte
# Cell membrane = assay: Induction of Cytoplasmic membrane depolarization in Staphylococcus aureus assessed as increase in fluorescence intensity measured at 6 times of MIC measured after 4 hrs by DiSC3(5) dye-based fluorescence assay; format: subcellular
# Staphylococcus aureus [23] = assay: Antibacterial activity against methicillin-resistant Staphylococcus aureus assessed as inhibition of bacterial growth incubated for 18 hrs by CLSI guidelines based assay; format: functional
# Enterococcus faecalis = assay: Antimicrobial activity against Enterococcus faecalis assessed as inhibition of growth incubated for 18 hrs by CLSI guidelines based assay; format: functional
# [24] = test system: Stenotrophomonas maltophilia; assay: Antimicrobial activity against Stenotrophomonas maltophilia assessed as inhibition of growth incubated for 18 hrs by CLSI guidelines based assay; format: functional
smiles,measurement,setting,value
CC[C@H]1OC(=O)[C@H](C)[C@@H](O[C@H]2C[C@@](C)(OC)[C@@H](O)[C@H](C)O2)[C@H](C)[C@@H](O[C@@H]2O[C@H](C)C[C@H](N(C)C)[C@H]2O)[C@](C)(O)C[C@@H](C)C(=O)[C@H](C)[C@@H](O)[C@]1(C)O [ERYTHROMYCIN],MIC90,Staphylococcus aureus [1],> 32 µg/mL
CN[C@H](CC(C)C)C(=O)N[C@H]1C(=O)N[C@@H](CC(N)=O)C(=O)N[C@H]2C(=O)N[C@H]3C(=O)N[C@H](C(=O)N[C@H](C(=O)O)c4cc(O)cc(O)c4-c4cc3ccc4O)[C@H](O)c3ccc(c(Cl)c3)Oc3cc2cc(c3O[C@@H]2O[C@H](CO)[C@@H](O)[C@H](O)[C@H]2O[C@H]2C[C@](C)(N)[C@H](O)[C@H](C)O2)Oc2ccc(cc2Cl)[C@H]1O [VANCOMYCIN],Activity,Staphylococcus aureus [2],Active
same,MIC,Escherichia coli [3],2 µg/mL
same,Activity,Staphylococcus aureus [4],22.1 um
same,Activity,Staphylococcus aureus [5],Active
same,Activity,Staphylococcus aureus [6],Active
same,HC50 at 1 h,[7],805 µg/mL
same,Activity,Staphylococcus aureus [8],3.2 log10CFU/ml
same,Activity,Staphylococcus aureus [9],Active
CO[C@@]1(NC(=O)C(C(=O)O)c2ccc(O)cc2)C(=O)N2C(C(=O)O)=C(CSc3nnnn3C)CO[C@@H]21 (stereo partly drawn) [MOXALACTAM],Activity,Escherichia coli [10],1 10^4CFU/ml
same,Activity,Escherichia coli [11],Active
same,Activity,Escherichia coli [12],Active
CCCCCCN(Cc1ccc(-c2ccc(CN(CCCCCC)C(=O)[C@@H](N)CCCCN)cc2)cc1)C(=O)[C@@H](N)CCCCN.O=C(O)C(F)(F)F.O=C(O)C(F)(F)F.O=C(O)C(F)(F)F.O=C(O)C(F)(F)F,MIC,Staphylococcus aureus [13],3.1 µg/mL
same,selectivity ratio,[14],74.2
CO[C@H]1/C=C/O[C@@]2(C)Oc3c(C)c(O)c4c(O)c(c(/C=N/N5CCN(C)CC5)c(O)c4c3C2=O)NC(=O)/C(C)=C\C=C\[C@H](C)[C@H](O)[C@@H](C)[C@@H](O)[C@@H](C)[C@H](OC(C)=O)[C@@H]1C [RIFAMPIN],MIC90,Staphylococcus aureus [1],> 32 µg/mL
CNC(C)[C@@H]1CC[C@@H](N)[C@@H](O[C@H]2[C@H](O)[C@@H](O[C@H]3OC[C@](C)(O)[C@H](NC)[C@H]3O)[C@H](N)C[C@@H]2N)O1.CN[C@@H]1[C@@H](O)[C@@H](O[C@@H]2[C@@H](O)[C@H](O[C@H]3O[C@H](C(C)N)CC[C@H]3N)[C@@H](N)C[C@H]2N)OC[C@]1(C)O.CN[C@@H]1[C@@H](O)[C@@H](O[C@@H]2[C@@H](O)[C@H](O[C@H]3O[C@H](CN)CC[C@H]3N)[C@@H](N)C[C@H]2N)OC[C@]1(C)O (stereo partly drawn),MIC90,Staphylococcus aureus [1],> 32 µg/mL
CC(C)CCCCC(=O)N[C@@H](CCN)C(=O)N[C@@H](CN[C@@H](CCN)C(=O)N[C@H]1CCNC(=O)[C@H]([C@@H](C)O)NC(=O)[C@H](CCN)NC(=O)[C@H](CCN)NC(=O)[C@H](CC(C)C)NC(=O)[C@@H](CC(C)C)NC(=O)[C@H](CCN)NC1=O)[C@@H](C)O.CCC(C)CCCCC(=O)N[C@@H](CCN)C(=O)N[C@@H](CN[C@@H](CCN)C(=O)N[C@H]1CCNC(=O)[C@H]([C@@H](C)O)NC(=O)[C@H](CCN)NC(=O)[C@H](CCN)NC(=O)[C@H](CC(C)C)NC(=O)[C@@H](CC(C)C)NC(=O)[C@H](CCN)NC1=O)[C@@H](C)O (stereo partly drawn) (H-[X1]([Dab-Octanoyl(6-Me)])[Dab][Dab][dL]L[Dab][Dab]T; lactam 2-C),MIC,Staphylococcus aureus [15],4 µg/mL
CCCCCCNC(=O)C[N+](C)(C)CCCCCCCCCCCC[N+](C)(C)CC(=O)NCCCCCC.[Br-].[Br-],selectivity ratio,[16],805
same,selectivity ratio,[17],> 1280
same,MIC,Staphylococcus aureus [18],1 µg/mL
same,CC50 at 24 h,[19],19.1 µg/mL
same,MIC,Staphylococcus aureus [20],1 µg/mL
same,HC50,[21],805 µg/mL
same,HC50 at 1 h,[7],> 1280 µg/mL
CCCCCCN(CCCOc1ccccc1-c1ccccc1OCCCN(CCCCCC)C(=O)[C@@H](N)CCCCN)C(=O)[C@@H](N)CCCCN.Cl.Cl.Cl.Cl,HC50,[22],> 1000 µg/mL
same,MIC,Staphylococcus aureus [13],0.5 µg/mL
same,selectivity ratio,[14],> 2000
CCn1cc(C(=O)O)c(=O)c2cc(F)c(N3CCNCC3)cc21 [NORFLOXACIN],MIC,Staphylococcus aureus [15],4 µg/mL
CC[C@H](C)[C@H](NC(=O)CN)C(=O)NCC(=O)N[C@@H](C)C(=O)N[C@H](C(=O)N[C@@H](CC(C)C)C(=O)N[C@@H](CCCCN)C(=O)N[C@H](C(=O)N[C@@H](CC(C)C)C(=O)N[C@H](C(=O)N[C@H](C(=O)NCC(=O)N[C@@H](CC(C)C)C(=O)N1CCC[C@H]1C(=O)N[C@@H](C)C(=O)N[C@@H](CC(C)C)C(=O)N[C@H](C(=O)N[C@@H](CO)C(=O)N[C@@H](Cc1c[nH]c2ccccc12)C(=O)N[C@H](C(=O)N[C@@H](CCCCN)C(=O)N[C@@H](CCCNC(=N)N)C(=O)N[C@@H](CCCCN)C(=O)N[C@@H](CCCNC(=N)N)C(=O)N[C@@H](CCC(N)=O)C(=O)N[C@@H](CCC(N)=O)C(N)=O)[C@@H](C)CC)[C@@H](C)CC)[C@@H](C)O)[C@@H](C)O)C(C)C)C(C)C,Activity,Cell membrane,Active
C[C@H]1c2cccc(O)c2C(=O)C2=C(O)[C@]3(O)C(=O)C(C(N)=O)=C(O)[C@@H](N(C)C)[C@@H]3[C@@H](O)[C@@H]21 [DOXYCYCLINE ANHYDROUS],MIC90,Staphylococcus aureus [1],> 32 µg/mL
same,MIC90,Staphylococcus aureus [23],≥ 16 µg/mL
C[N+](C)(CCCCCOc1cc(OCCCCC[N+](C)(C)CCCCc2ccccc2)cc(OCCCCC[N+](C)(C)CCCCc2ccccc2)c1)CCCCc1ccccc1.[Br-].[Br-].[Br-],MIC,Escherichia coli [3],2 µg/mL
same,selectivity ratio,[17],> 1280
same,MIC,Staphylococcus aureus [18],1 µg/mL
same,MIC,Enterococcus faecalis,2 µg/mL
same,CC50 at 24 h,[19],< 30 µg/mL
same,HC50 at 1 h,[7],> 1280 µg/mL
same,MIC,[24],2 µg/mL
CCCCCCCNC(=O)C[N+](C)(C)CCCCCCCCCCCC[N+](C)(C)CC(=O)NCCCCCCC.[Br-].[Br-],selectivity ratio,[16],2440
same,MIC,Escherichia coli [3],0.062 µg/mL
same,CC50 at 24 h,[19],38.1 µg/mL
same,MIC,Staphylococcus aureus [20],0.5 µg/mL
same,HC50,[21],1220 µg/mL
